Patent publication US20190016689A1, “NOVEL FLUORINATED QUINAZOLINE DERIVATIVES AS EGFR INHIBITORS” (TRILLIUM THERAPEUTICS INC., priority 2016, published 2019)

What was measured:
[1] = system: SF-268; assay: NCI screening panel (SRB); format: cell-based; details: Homo sapiens, SF-268 (CNS), 48 h; for CC50: read-out: LC50 (the source's name)
[2] = system: KM12; assay: NCI screening panel (SRB); format: cell-based; details: Homo sapiens, KM12 (Colon), 48 h; for CC50: read-out: LC50 (the source's name)
[3] = target: EGFR (L861Q) (Homo sapiens, UniProt P00533, L861Q); assay: Kinase assays, selectivity panel (qPCR); details: read-out: % Control @ 300 nM
EGFR (L861Q), sequence (P00533 25-1210 L861Q): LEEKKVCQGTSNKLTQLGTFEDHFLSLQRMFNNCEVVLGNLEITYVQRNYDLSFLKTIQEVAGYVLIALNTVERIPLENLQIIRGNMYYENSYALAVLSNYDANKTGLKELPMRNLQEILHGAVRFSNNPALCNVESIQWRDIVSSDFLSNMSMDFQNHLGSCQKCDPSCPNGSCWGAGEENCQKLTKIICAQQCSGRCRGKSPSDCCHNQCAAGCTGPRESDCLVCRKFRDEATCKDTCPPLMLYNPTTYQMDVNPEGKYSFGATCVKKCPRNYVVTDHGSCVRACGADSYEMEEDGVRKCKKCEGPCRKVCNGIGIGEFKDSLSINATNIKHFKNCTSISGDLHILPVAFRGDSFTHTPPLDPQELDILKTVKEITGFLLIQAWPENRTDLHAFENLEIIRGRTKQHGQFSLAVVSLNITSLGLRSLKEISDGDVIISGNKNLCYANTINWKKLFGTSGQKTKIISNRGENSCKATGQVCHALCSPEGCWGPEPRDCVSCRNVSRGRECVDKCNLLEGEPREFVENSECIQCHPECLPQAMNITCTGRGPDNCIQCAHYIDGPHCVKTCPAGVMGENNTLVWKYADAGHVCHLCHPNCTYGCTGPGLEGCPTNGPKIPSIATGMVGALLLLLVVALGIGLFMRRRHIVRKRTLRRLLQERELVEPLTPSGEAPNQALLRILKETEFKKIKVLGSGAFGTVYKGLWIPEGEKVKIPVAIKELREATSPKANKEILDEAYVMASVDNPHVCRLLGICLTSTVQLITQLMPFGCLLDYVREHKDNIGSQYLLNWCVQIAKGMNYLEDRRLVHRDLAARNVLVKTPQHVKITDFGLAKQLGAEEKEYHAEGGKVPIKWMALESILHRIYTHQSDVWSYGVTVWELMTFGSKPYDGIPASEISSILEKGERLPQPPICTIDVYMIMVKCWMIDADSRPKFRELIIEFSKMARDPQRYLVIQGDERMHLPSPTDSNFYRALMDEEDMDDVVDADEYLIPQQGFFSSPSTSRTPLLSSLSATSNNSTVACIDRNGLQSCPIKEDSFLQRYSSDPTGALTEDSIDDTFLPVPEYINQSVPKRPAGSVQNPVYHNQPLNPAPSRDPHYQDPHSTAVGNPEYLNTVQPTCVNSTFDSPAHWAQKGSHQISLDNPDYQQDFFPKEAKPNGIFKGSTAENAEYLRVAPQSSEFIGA

[4] = system: UACC-257; assay: NCI screening panel (SRB); format: cell-based; details: Homo sapiens, UACC-257 (Melanoma), 48 h; for CC50: read-out: LC50 (the source's name)
[5] = system: SNB-19; assay: NCI screening panel (SRB); format: cell-based; details: Homo sapiens, SNB-19 (CNS), 48 h; for CC50: read-out: LC50 (the source's name)
[6] = Microsomal stability; format: in vitro ADME, mouse (CD-1, male); details: Mouse liver microsomes with NADPH; for Remaining Percentage (%) after 60 min: 1 μM; for half-life at 1 μM / microsomal CLint at 1 μM: male, CD-1
Protocol: Working stocks were initially diluted to a concentration of 40.0 μM in 0.1 M potassium phosphate buffer before addition to the reaction vials. Pooled mouse (CD-1, male) or human (50 donors) liver microsomes were utilized at a final concentration of 0.5 mg/ml. […] Reactions were carried out at 37° C. in a shaker, and the final concentration of DMSO was kept constant at 0.01%. The final volume for each reaction was 100 μL, which includes the addition of an NADPH-Regeneration solution (NRS) mix. This NRS mix is comprised of glucose 6-phosphate dehydrogenase (0.4 U/mL), NADP+(1.3 mM), MgCl2 (3.3 mM), and glucose 6-phosphate (3.3 mM) in assay mixtures. […] Samples were then centrifuged at 4,000 rpm for 10 minutes to remove debris and precipitated protein. Approximately 150 μL of supernatant was subsequently transferred to a new 96 well microplate for LC/MS analysis.
Narrow-window mass extraction LC/MS analysis was performed for all samples using a Waters Xevo quadrupole time-of-flight (QTof) mass spectrometer and an ACQUITY UPLC system, to determine relative peak areas of parent compound.

[7] = system: LOXIMVI; assay: NCI screening panel (SRB); format: cell-based; details: Homo sapiens, LOX IMVI, LOXIMVI (Melanoma), 48 h; for CC50: read-out: LC50 (the source's name)
[8] = system: HCT-116; assay: NCI screening panel (SRB); format: cell-based; details: Homo sapiens, HCT-116 (Colon), 48 h; for CC50: read-out: LC50 (the source's name)
[9] = system: MDA-MB-231/ATCC; assay: NCI screening panel (SRB); format: cell-based; details: Homo sapiens, MDA-MB-231/ATCC (Breast), 48 h; for CC50: read-out: LC50 (the source's name)
[10] = system: SK-MEL-5; assay: NCI screening panel (SRB); format: cell-based; details: Homo sapiens, SK-MEL-5 (Melanoma), 48 h; for CC50: read-out: LC50 (the source's name)
[11] = target: T1, EPHA6 (Homo sapiens, UniProt Q9UF33); assay: Binding to EPHA (kinase competition binding, qPCR); set-up: T7 phage fusion (kinase-tagged phage) or DNA tag for qPCR; made in house; host or cells: E. coli BL21-derived host (T7 phage) or HEK-293; details: 300 nM, read-out: % Control @ 300 nM
T1 sequence (Q9UF33 23-1036): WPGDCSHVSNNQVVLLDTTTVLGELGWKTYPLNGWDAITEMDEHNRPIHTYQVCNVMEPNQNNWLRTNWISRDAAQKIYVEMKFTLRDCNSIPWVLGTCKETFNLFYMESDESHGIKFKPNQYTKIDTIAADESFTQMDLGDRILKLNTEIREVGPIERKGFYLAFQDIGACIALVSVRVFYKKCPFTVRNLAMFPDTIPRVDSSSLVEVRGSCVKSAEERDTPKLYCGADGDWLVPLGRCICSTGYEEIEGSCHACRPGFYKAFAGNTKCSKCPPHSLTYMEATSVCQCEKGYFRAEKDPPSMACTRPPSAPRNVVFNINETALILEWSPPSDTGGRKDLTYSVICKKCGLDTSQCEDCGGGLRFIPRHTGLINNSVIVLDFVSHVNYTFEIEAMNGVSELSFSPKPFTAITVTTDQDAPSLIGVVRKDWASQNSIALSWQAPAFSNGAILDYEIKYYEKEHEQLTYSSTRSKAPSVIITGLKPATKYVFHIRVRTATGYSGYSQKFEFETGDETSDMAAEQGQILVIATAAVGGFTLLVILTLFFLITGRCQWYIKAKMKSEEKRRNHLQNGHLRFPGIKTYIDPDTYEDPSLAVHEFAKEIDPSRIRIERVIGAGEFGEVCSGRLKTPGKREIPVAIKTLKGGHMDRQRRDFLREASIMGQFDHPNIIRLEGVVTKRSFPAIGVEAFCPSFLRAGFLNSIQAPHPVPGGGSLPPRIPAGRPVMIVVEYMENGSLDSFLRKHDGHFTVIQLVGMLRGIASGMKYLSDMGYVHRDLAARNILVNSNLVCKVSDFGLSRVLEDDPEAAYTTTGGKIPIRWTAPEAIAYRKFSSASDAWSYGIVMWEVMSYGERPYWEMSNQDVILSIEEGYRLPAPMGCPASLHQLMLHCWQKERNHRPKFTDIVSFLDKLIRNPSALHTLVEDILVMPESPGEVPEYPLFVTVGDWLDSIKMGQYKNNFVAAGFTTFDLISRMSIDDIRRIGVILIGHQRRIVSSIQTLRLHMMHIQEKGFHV
Protocol: The lysates were centrifuged and filtered to remove cell debris. […] All reactions were performed in polystyrene 96-well plates in a final volume of 0.135 ml.

[12] = system: DU-145; assay: NCI screening panel (SRB); format: cell-based; details: Homo sapiens, DU-145 (Prostate), 48 h; for CC50: read-out: LC50 (the source's name)

CN(C)C/C=C/C(=O)Nc1cc2c(Nc3ccc(F)c(Cl)c3F)ncnc2cc1OCCOC(F)F.O=C(O)/C=C\C(=O)O.O=C(O)/C=C\C(=O)O [Example I-9-MA, (E)-N-[4-(3-chloro-2,4-difluoro-anilino)-7-[2-(difluoromethoxy)ethoxy]quinazolin-6-yl]-4-(dimethylamino)but-2-enamide di-maleic acid salt]
GI50 [1]: 0.747 µM
CC50 [1]: 27.3 µM
GI50 [2]: 1.88 µM
CC50 [2]: 29.2 µM
remaining activity at 0.3 µM [3]: 0.1%
GI50 [4]: 2.18 µM
CC50 [4]: 34 µM
GI50 [5]: 1.6 µM
CC50 [5]: 36.6 µM
Remaining Percentage (%) after 60 min [6]: 30.53%
half-life at 1 μM [6]: 35.2 min
microsomal CLint at 1 μM [6]: 39.4 µL/min/mg
GI50 [7]: 0.944 µM
CC50 [7]: 4.91 µM
GI50 [8]: 0.483 µM
CC50 [8]: 22.4 µM
GI50 [9]: 0.391 µM
CC50 [9]: 28.8 µM
GI50 [10]: 1.65 µM
CC50 [10]: 7.39 µM
remaining binding at 0.3 µM [11]: 3.5%
GI50 [12]: 0.14 µM
CC50 [12]: 20.8 µM

O=C(/C=C/CN1CCCCC1)Nc1cc2c(Nc3ccc(F)c(Cl)c3F)ncnc2cc1OCCOC(F)F.O=C(O)/C=C\C(=O)O.O=C(O)/C=C\C(=O)O [Example I-10-MA, (E)-N-[4-(3-chloro-2,4-difluoro-anilino)-7-[2-(difluoromethoxy)ethoxy]quinazolin-6-yl]-4-(1-piperidyl)but-2-enamide di-maleic acid salt]
GI50 [1]: 1.25 µM
CC50 [1]: 41.7 µM
GI50 [2]: 2.67 µM
CC50 [2]: 34.3 µM
remaining activity at 0.3 µM [3]: 0.75%
GI50 [4]: 1.74 µM
CC50 [4]: 24.1 µM
GI50 [5]: 2.16 µM
CC50 [5]: 68.8 µM
Remaining Percentage (%) after 60 min [6]: 48.95%
half-life at 1 μM [6]: 57.8 min
microsomal CLint at 1 μM [6]: 24 µL/min/mg
GI50 [7]: 1.34 µM
CC50 [7]: 5.49 µM
GI50 [8]: 1.54 µM
CC50 [8]: 88.9 µM
GI50 [9]: 1.15 µM
CC50 [9]: 17.6 µM
GI50 [10]: 1.63 µM
CC50 [10]: 6.25 µM
remaining binding at 0.3 µM [11]: 3.9%
GI50 [12]: 0.266 µM
CC50 [12]: 37.8 µM
